Patent US20020164333A1, “Bifunctional molecules and vectors complexed therewith for targeted gene delivery” (The Scripps Research Institute, priority 2000, published 2002)

System: M21-L12 melanoma cells
Assay: Ad-mediated gene delivery after pretreatment of cells with PI3K inhibitors
Assay type: cell-based, human
Experimental: Efficient Ad internalization via αv integrins requires activation of PI3K, a key cellular signaling molecule. […] Ad mediated gene delivery was analyzed 48 hours post infection.

| SMILES | inhibition of Ad-mediated gene delivery (cells pretreated 30 min with wortmannin (30 nM) or LY292004 (20 μM) before Ad.RSV.βgal complexed with D or DT, 48 hours post infection) [%] | inhibition at 0.03 µM (Homo sapiens, read-out: inhibition of Ad-mediated gene delivery) [%] |
| --- | --- | --- |
| O=c1cc(N2CCOCC2)oc2c(-c3ccccc3)cccc12 [LY294002] | ~50 | – |
| COC[C@H]1OC(=O)c2coc3c2[C@@]1(C)C1=C(C3=O)[C@@H]2CCC(=O)[C@@]2(C)C[C@H]1OC(C)=O [Wortmannin, wortmannin] | – | ~70 |
